From PMC5676773, “Odor-evoked inhibition of olfactory sensory neurons drives olfactory perception in Drosophila” (Nature Communications, 2017) come the findings set out here.

Each structure is given as a SMILES string.

Assay [1] concerns the target T1, Or85a (OR/ORCO complex in Or85a-OSNs) (Drosophila melanogaster, UniProt Q9VHS4).
T1 construct: native receptor in Or85a-expressing olfactory sensory neurons, antennal slices; GFP-labelled via Or85a-Gal4; with Odorant receptor coreceptor
T1 sequence (Q9VHS4 1-397): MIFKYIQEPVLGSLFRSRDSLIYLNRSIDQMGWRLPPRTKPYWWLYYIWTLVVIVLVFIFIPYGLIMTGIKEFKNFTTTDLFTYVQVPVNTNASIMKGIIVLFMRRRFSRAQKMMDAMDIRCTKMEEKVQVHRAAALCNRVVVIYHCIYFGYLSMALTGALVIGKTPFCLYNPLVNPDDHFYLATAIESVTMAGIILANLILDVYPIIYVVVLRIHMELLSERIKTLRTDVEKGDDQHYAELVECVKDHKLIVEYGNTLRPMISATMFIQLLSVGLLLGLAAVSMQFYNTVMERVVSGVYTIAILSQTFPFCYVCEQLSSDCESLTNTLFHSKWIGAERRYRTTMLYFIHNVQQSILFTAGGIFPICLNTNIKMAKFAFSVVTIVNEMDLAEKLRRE
T1 sequence (Q9VNB5 1-486 partner): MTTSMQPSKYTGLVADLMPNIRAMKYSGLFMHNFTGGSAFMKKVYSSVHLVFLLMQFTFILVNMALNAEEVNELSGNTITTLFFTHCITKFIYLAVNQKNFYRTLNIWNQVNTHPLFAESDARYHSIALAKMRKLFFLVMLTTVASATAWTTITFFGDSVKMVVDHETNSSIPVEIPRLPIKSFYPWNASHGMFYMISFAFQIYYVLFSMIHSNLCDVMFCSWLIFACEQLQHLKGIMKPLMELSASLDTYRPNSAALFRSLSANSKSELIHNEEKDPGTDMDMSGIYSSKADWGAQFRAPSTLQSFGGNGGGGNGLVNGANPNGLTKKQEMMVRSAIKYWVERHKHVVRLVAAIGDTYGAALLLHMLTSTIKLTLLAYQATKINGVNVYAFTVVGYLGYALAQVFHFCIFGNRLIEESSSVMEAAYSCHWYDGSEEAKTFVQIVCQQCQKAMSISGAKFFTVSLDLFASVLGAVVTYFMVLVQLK
The assay is described as follows: perforated patch clamp of Or85a-OSNs, inward receptor current. The class given is cell-based. The note with it: 35-ms odor pulses, no acetophenone; excitatory odor (agonist); nominal concentration in saline; voltage-clamped; read-out: K 1/2. (Patch clamp records ionic current or voltage across a cell membrane.)

In assay [2] the target is T1, Or85a (OR/ORCO complex in Or85a-OSNs). The experiment in a line: perforated patch clamp of Or85a-OSNs, outward receptor current (reduction of basal current). The following applies: 150-ms odor pulses, -80 mV; inhibits constitutive activity (inverse agonist), competitive against ethyl 3-hydroxybutyrate; Hill fit, n = 4; read-out: K 1/2. The class given is cell-based.

Regarding `CCOC(=O)CC(C)O` (centres unmarked) [ethyl 3-hydroxybutyrate], the EC50 in assay [1] stood at 1.1 ± 0.2 mM.
With `CC(=O)c1ccccc1` [acetophenone], the IC50 in assay [2] is 27 ± 13 mM.
